The source of these data is ChEMBL document CHEMBL1147418, “Rational design and synthesis of selective BACE-1 inhibitors” (Bioorg Med Chem Lett, 2004).

Molecules are shown by their SMILES.

The target of one test is T1, Renin (Homo sapiens, UniProt P00797).
T1 sequence (P00797 whole entry): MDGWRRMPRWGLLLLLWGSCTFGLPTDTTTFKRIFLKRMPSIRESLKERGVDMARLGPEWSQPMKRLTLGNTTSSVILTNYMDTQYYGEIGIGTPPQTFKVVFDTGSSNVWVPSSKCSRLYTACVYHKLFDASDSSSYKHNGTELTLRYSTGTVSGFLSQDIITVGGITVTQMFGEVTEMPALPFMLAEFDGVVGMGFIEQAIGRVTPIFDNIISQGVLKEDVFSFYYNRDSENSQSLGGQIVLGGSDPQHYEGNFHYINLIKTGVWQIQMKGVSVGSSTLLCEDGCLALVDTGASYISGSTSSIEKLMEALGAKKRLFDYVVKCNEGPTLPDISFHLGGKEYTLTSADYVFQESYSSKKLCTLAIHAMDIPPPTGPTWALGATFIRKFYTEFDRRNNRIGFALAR
The test can be described thus: Compound was tested for inhibition of human renin.

Another test addresses Cathepsin D (Homo sapiens, UniProt P07339). The test can be described thus: Compound was tested for inhibition of cathepsin D.
Test [1] deals with T2, Beta-secretase 1 (Homo sapiens, UniProt P56817). The test can be described thus: Tested for inhibition of Beta-secretase 1 (BACE 1) expressed in insect cell using baculovirus.
In test [2] the target is T2, Beta-secretase 1. As to the kind of experiment: Compound (>1 mM ) was tested for inhibition of Beta-secretase 1 (BACE 1) expressed in insect cell using baculovirus; Not inhibited.

T2 sequence (P56817 whole entry): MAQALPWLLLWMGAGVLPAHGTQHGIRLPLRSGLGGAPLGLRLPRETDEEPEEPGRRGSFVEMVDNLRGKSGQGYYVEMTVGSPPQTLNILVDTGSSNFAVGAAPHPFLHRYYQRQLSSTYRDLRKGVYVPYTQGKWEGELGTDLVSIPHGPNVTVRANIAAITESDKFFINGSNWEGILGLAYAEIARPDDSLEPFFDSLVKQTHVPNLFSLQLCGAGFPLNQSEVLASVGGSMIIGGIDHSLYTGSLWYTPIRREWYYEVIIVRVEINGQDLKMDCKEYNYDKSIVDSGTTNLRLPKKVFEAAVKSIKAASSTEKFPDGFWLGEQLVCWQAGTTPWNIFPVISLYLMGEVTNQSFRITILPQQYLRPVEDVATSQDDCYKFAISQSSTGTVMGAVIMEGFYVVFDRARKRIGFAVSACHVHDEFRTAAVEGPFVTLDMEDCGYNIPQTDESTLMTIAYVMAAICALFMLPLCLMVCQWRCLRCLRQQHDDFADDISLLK
Chain of Cathepsin D (P07339 65-162 limits assumed): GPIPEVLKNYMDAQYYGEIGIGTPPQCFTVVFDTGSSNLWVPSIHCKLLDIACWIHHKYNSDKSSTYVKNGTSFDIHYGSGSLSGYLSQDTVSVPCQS
Chain of Cathepsin D (P07339 169-412 limits assumed): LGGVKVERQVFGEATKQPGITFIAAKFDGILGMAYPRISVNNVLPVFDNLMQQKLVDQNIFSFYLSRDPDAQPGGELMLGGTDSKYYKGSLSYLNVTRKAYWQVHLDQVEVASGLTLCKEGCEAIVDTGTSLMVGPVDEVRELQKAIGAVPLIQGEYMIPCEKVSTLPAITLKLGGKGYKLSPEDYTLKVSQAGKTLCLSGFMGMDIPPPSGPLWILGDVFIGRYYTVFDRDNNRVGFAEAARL

Broadly, the Ki is a measure of affinity in units of concentration, obtained from inhibition or displacement. As to `CC(C)CNC(=O)[C@H](CCO)C[C@H](O)[C@H](Cc1ccccc1)NC(=O)C[C@H](NC(=O)CC(C)C)C(=O)O`, the Ki was found to be 10.9 µM on Renin, 12.5 µM at Cathepsin D and 1.9 µM on Beta-secretase 1 [1].

For the molecule `CC(C)CC(=O)N[C@H](C(=O)N[C@H](C(=O)N[C@@H](CC(C)C)[C@@H](O)CC(=O)N[C@@H](C)C(=O)N[C@@H](CC(C)C)[C@@H](O)CC(=O)O)C(C)C)C(C)C`, the Activity result on Beta-secretase 1 [2] is “No inhibition”.

Consider `CCC[C@H](C[C@H](O)[C@H](Cc1ccccc1)NC(=O)C[C@H](NC(=O)CC(C)C)C(=O)O)C(=O)NCC(C)C`, for which the inhibitory constant (Ki) on Renin stood at 24.4 µM; on Cathepsin D, 28 µM; on Beta-secretase 1 [1], 69.5 µM.

With `CC(C)CNC(=O)[C@H](CCC(=O)O)C[C@H](O)[C@H](Cc1ccccc1)NC(=O)C[C@H](NC(=O)CC(C)C)C(=O)O`, the Ki on Renin was found to be 73.6 µM; at Cathepsin D, 79.7 µM; at Beta-secretase 1 [1], 1.7 µM.

For the molecule `CC(=O)OCC[C@H](C[C@H](O)[C@H](Cc1ccccc1)NC(=O)C[C@H](NC(=O)CC(C)C)C(=O)O)C(=O)NCC(C)C`, the Ki at Renin amounted to 1.9 µM; at Cathepsin D it was 2.2 µM; on Beta-secretase 1 [1], 2.7 µM.
